Results taken from patent publication US4278596A, “Analgesic pentapeptides” (American Home Products Corporation, priority 1978, dated 1981).

Columns and labels:
[1] = tested on: rats; assay: rat-tail flick method of D'Amour and Smith; format: in vivo; conditions: 5.0 mg/kg. i.v.
Description: In this procedure, a representative polypeptide of this invention, N-Me-Tyr-D-Ser-Gly-N-Me-Phe-D-Ser-NH2,acetate, produced significant analgesia in rats upon administration at a dose as low as 0.1 mg/kg. intravenously, and 0.5 mg/kg. subcutaneously.
When N-Me-Tyr-D-Ser-Gly-N-Me-Phe-D-Ser-NH2, acetate was tested in the rat-tail flick procedure of D'Amour and Smith (supra), the following results were obtained: […]

[2] = tested on: mouse vas deferns; conditions: mouse vas deferens, like morphine; cited from earlier work
[3] = tested on: guinea pig ileum; conditions: like morphine; cited from earlier work
[4] = tested on: opiate receptor; conditions: brain homogenates; cited from earlier work

| Molecule | dead [1] | effect on electrically evoked contractions [2] | effect on electrically evoked contractions [3] | effect on stereospecific receptor binding of 3H-naloxone [4] |
| --- | --- | --- | --- | --- |
| CN[C@@H](Cc1ccc(O)cc1)C(=O)N[C@H](CO)C(=O)NCC(=O)N(C)[C@@H](Cc1ccccc1)C(=O)N[C@H](CO)C(N)=O [N-Methyl-Tyrosyl-D-Serylglycyl-N-MethylPhenylalanyl-D-Serinamide. Acetate] | 3/6 |  |  |  |
| H-Tyr-Gly-Gly-Phe-Leu-OH [leucine-enkephalin] |  | block electrically evoked contractions | block electrically evoked contractions | inhibit |
| H-Tyr-Gly-Gly-Phe-Met-OH [methionine-enkephalin] |  | block electrically evoked contractions | block electrically evoked contractions | inhibit |
